Laboratory results published in the supplement of paper PMC4858399.
Where a name gives a salt, the structure may show the parent alone.

Columns and labels:
[1] = test system: Caenorhabditis elegans N2; assay: mean nematode size ln(EXT) after 48 h, plate-adjusted (DMSO control set to 6) (ln(EXT), control-adjusted); higher = larger nematodes / less growth inhibition; conditions: exposure time 48 h
How it was run: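 In K-medium with killed OP50, 1% DMSO and 0.5–200 µM chemical, synchronised N2 L1 larvae of C. elegans (50 per well) grew for 48 h at 20°C. Extinction was read for every worm on the Biosort, with debris removed by a growth model. Natural-log values averaged per well gave mean size, which was corrected per plate by subtracting the vehicle control mean and adding 6.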

[2] = test system: Caenorhabditis elegans N2; assay: lowest effective concentration for larval growth inhibition (size below effect threshold); higher = less potent; conditions: exposure time 48 h
How it was run: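 In 96-well plates, 50 C. elegans N2 L1 larvae per well were cultured at 20°C for 48 h in K-medium with killed bacteria and 1% DMSO, plus the chemical at 0.5, 1, 5, 10, 50, 100 or 200 µM. Size was measured as per-worm extinction on a Biosort and log-transformed into well means. Taking the first dose where the plate-adjusted mean size sits under 5.665 and stays there at higher doses gives the lowest effective concentration.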

Row | SMILES | mean nematode size ln(EXT) (ln) ([1]; 0.5 µM) | mean nematode size ln(EXT) (ln) ([1]; 1 µM) | mean nematode size ln(EXT) (ln) ([1]; 5 µM) | mean nematode size ln(EXT) (ln) ([1]; 10 µM) | mean nematode size ln(EXT) (ln) ([1]; 50 µM) | mean nematode size ln(EXT) (ln) ([1]; 100 µM) | mean nematode size ln(EXT) (ln) ([1]; 200 µM) | lowest effective concentration [2]
1 | CCCCCCOC(=O)CC(CC(=O)OCCCCCC)(OC(=O)CCC)C(=O)OCCCCCC [N-Butyryl tri-N-hexyl citrate] | 5.93 | 5.96 | 5.91 | 5.98 | 6.15 | 5.75 | 5.83 | > 200 µM
2 | Oc1ccc(O)cc1 [Hydroquinone] | 5.99 | 6.02 | 6.04 | 6.02 | 6.1 | 6.09 | 5.72 | > 200 µM
3 | COc1c(Cl)ccc(Cl)c1C(=O)O [Dicamba] | 5.78 | 5.92 | 5.72 | 5.98 | 6.18 | 6.37 | 6.03 | > 200 µM
4 | CCCCOC(=O)c1ccccc1C(=O)O [Monobutyl phthalate] | 6.02 | 5.99 | 6.01 | 5.99 | 5.97 | 5.95 | 5.97 | > 200 µM
5 | COC(=O)c1ccccc1C(=O)O [Methyl hydrogen phthalate] | 6.07 | 6.01 | 6.1 | 6.07 | 6.14 | 6.14 | 5.95 | > 200 µM
6 | CC(C)(O)c1ccc(CNC(=O)c2cccnc2Oc2ccc(F)cc2)cc1 | 5.74 | 6.01 | 5.84 | 5.9 | 5.91 | 5.9 | 5.72 | > 200 µM
7 | CCOCCO [2-Ethoxyethanol] | 5.85 | 5.79 | 5.75 | 5.64 | 5.72 | 5.89 | 5.79 | > 200 µM
8 | Oc1ccc(Cl)cc1Cl [2,4-Dichlorophenol] | 6.05 | 6.13 | 6.07 | 6.04 | 6.03 | 6.03 | 6.92 | > 200 µM
9 | C=CCOC(=O)C(C)(C)OC(=O)c1cc(-n2c(=O)cc(C(F)(F)F)n(C)c2=O)ccc1Cl [Butafenacil] | 5.9 | 5.89 | 5.87 | 5.88 | 5.84 | 5.92 | 5.94 | > 200 µM
10 | CNC(=O)Oc1ccccc1OC(C)C [Propoxur] | 6.04 | 5.9 | 6.09 | 6.03 | 5.83 | 6.46 | 5.8 | > 200 µM
11 | CCCCc1ccc2c(n1)[C@@H](c1ccc(OC)cc1C[C@H](C)C(=O)O)[C@H](C(=O)O)[C@H]2c1ccc2c(c1)OCO2 | 5.82 | 5.87 | 5.83 | 6.32 | 5.91 | 5.95 | 5.88 | > 200 µM
12 | COC(=O)CC(=O)OC [Dimethyl malonate] | 5.85 | 5.89 | 5.88 | 6.13 | 5.87 | 5.89 | 5.75 | > 200 µM
13 | NC(=O)NO [Hydroxyurea] | 6 | 5.97 | 5.92 | 5.93 | 5.75 | 5.63 | 5.73 | > 200 µM
14 | CCOC(=O)CC(SP(=O)(OC)OC)C(=O)OCC (stereo unspecified) [Malaoxon] | 5.9 | 5.85 | 6.21 | 5.99 | 5.89 | 5.94 | 5.83 | > 200 µM
15 | CCCCC(CC)COP(=O)(OCC(CC)CCCC)OCC(CC)CCCC (stereo unspecified) [Tris(2-ethylhexyl) phosphate] | 5.94 | 5.99 | 5.94 | 5.96 | 5.92 | 5.34 | 5.78 | > 200 µM
16 | COC(=O)NS(=O)(=O)c1ccc(N)cc1 [Asulam] | 6.06 | 5.99 | 5.51 | 6.04 | 5.49 | 5.99 | 5.83 | > 200 µM
17 | Cc1nc(-c2ccccn2)ncc1C(=O)Nn1cc(C)c2cc(F)ccc21 | 5.82 | 5.84 | 5.9 | 5.83 | 5.73 | 5.77 | 5.86 | > 200 µM
18 | NNC(=O)c1ccncc1 [Isoniazid] | 5.78 | 5.82 | 5.77 | 5.64 | 5.82 | 5.88 | 5.65 | 200 µM
19 | O=S(=O)(O)C(F)(F)C(F)(F)C(F)(F)C(F)(F)F [Potassium nonafluoro-1-butanesulfonate] | 5.49 | 5.58 | 5.55 | 5.7 | 5.7 | 5.65 | 5.81 | > 200 µM
20 | O=[N+]([O-])c1ccc(O)cc1 [Sodium p-nitrophenolate] | 5.95 | 5.97 | 5.92 | 5.98 | 6.15 | 5.81 | 5.87 | > 200 µM
21 | CCN(Cc1cccc(S(=O)(=O)O)c1)c1ccc(C(=C2C=CC(=[N+](CC)Cc3cccc(S(=O)(=O)O)c3)C=C2)c2ccccc2S(=O)(=O)[O-])cc1 [FD & C Blue no. 1] | 5.85 | 5.87 | 5.91 | 5.88 | 5.89 | 5.92 | 5.89 | > 200 µM
22 | O=C1NS(=O)(=O)c2ccccc21.[Na] [Saccharin sodium salt hydrate] | 5.88 | 5.93 | 5.96 | 5.9 | 5.89 | 5.9 | 5.79 | > 200 µM
23 | C1CNCCN1 [Piperazine] | 5.84 | 5.81 | 5.85 | 5.84 | 5.89 | 5.84 | 5.74 | > 200 µM
24 | COc1ccc2sc(C(=O)Nc3nnn[nH]3)c(OC(C)C)c2c1 | 5.89 | 5.99 | 5.89 | 6.11 | 5.82 | 5.86 | 6.09 | > 200 µM
25 | Cc1occc(=O)c1O [Maltol] | 6.08 | 5.97 | 6.02 | 6.07 | 6 | 5.93 | 5.76 | > 200 µM
26 | Nc1cnn(-c2ccccc2)c(=O)c1Cl [Chloridazon] | 5.51 | 5.47 | 5.3 | 6.01 | 5.44 | 5.44 | 5.89 | > 200 µM
27 | Cc1ccc(O)c(C)c1 [2,4-Dimethylphenol] | 5.82 | 5.97 | 5.96 | 5.87 | 5.85 | 5.84 | 5.72 | > 200 µM
